For orientation: IC50 means the concentration at which inhibition is half-maximal. Low readings indicate higher potency, high ones lower potency.

This is an account of results in paper PMC9318536, “Novel Cyclic Peptides for Targeting EGFR and EGRvIII Mutation for Drug Delivery” (Pharmaceutics, 2022).

For series [1], the system named is DKMG cells. Nature of the series: XTT cytotoxicity of peptides, peptide-CPT conjugates and CPT on DKMG cells. In kind it is cell-based. As to conditions: for cell viability relative to control untreated cells (IC50 could not be calculated) / IC50 / effect on cell viability (in words): XTT; for IC50: non-linear regression, mean ± SD, triplicate; for effect on cell viability (in words): 24 h pre-incubation protocol. Here is the method:
(§1) Cell growth in the presence of PDCs was measured by a commercial XTT assay kit (Cell Proliferation Kit, XTT based; Sartorius, Israel). The cells were seeded in 96-well plates (10^4 cells/well) and incubated overnight in a complete growth medium. They were then washed and re-cultured in 100 µL of fresh complete medium containing various concentrations of free drugs or PDCs, for 24, 48, and 72 h. The XTT solution was added to each well and the plate was further incubated for 2–3 h at 37 °C. The optical densities in the wells were measured at both 480 and 680 nm using a TECAN Infinite M200 ELISA reader. All tests were performed in triplicate, and each experiment was repeated three times.
(§2) The cytotoxicity of the PDCs was tested against H1299 and DKMG cells using two protocols. In the first protocol, cells were incubated in a complete medium containing a range of concentrations (0.5–50 µM) of P6, P9, P6-CPT, or P9-CPT for 6 h, after which, the medium was replaced with fresh, drug-free, complete medium, and the cells were cultured for an additional 24 h (designated as 6h24h) or 48 h (6h48h). In the second protocol, cells were exposed continuously to free drugs or PDCs for 24, 48, and 72 h. For each case, during the culture period, cell cytotoxicity was determined as described above and IC50 values were calculated.

The subject of series [2] is H1299 cells. Kind of series: XTT cytotoxicity of peptides, peptide-CPT conjugates and CPT on H1299 cells. As to conditions: for cell viability relative to control untreated cells (IC50 could not be calculated): H1299, XTT; for IC50: Homo sapiens. Here is the method:
as §1, §2

A short description of series [3]: Drug release / PDC breakdown in complete growth medium. The class given is in vitro ADME. Conditions: RPMI and DMEM complete growth media, 37 °C, 0–72 h, LC–MS, triplicate. Here is the method:
PDC breakdown rates were determined as described elsewhere. Briefly, peptide-FITC and peptide–CPT conjugates were incubated at 37 °C in 1 mL of DMEM or RPMI full-growth medium for […], 3, 7, 24, 48, and 72 h. At each time point, 10 µL of the sample was taken and mixed with 25 µL ACN/H20 (1:1, v/v.). The samples were centrifuged at 1400 rpm for 15 min. Supernatants were collected, filtered, and analyzed by liquid chromatography–mass spectrometry (LC–MS).
The release rates of CPT from P6-CPT and P9-CPT were measured in RPMI and DMEM complete growth media at 37 °C for 0, 0.5, 3, 7, 24, 48, and 72 h according to the procedure. The degradation of the conjugates and the CPT release were analyzed by LC–MS. […] The conjugates degraded with a half-life of 6–7 h (Figure 8).

In series [4] the target is T1, EGFR on H1299 cells (Homo sapiens, UniProt P00533).
T1 construct: H1299, H1975, and DKMG cells were characterized by cell surface overexpression of EGFR; endogenous in cells; host or cells: H1299 cells (ATCC)
Nature of the series: Competitive binding assay with EGF by FACS. The class given is cell-based. As to conditions: H1299, 2.5 µM FITC-labeled peptides with or without 80 nM EGF, 4 °C 1 h then 37 °C 15 min, duplicate. Here is the method: H1299 and DKMG cell lines were cultured in a complete RPMI growth medium in a 6-well plate overnight, until 80% confluent. Pre-incubation was performed with a blocking buffer consisting of 5 mg/mL BSA in PBS, pH 7.4, at 4 °C for 30 min. Then, cells were washed twice in PBS and incubated with 2.5 µM of FITC-labeled peptides with or without 80 nM EGF at 4 °C for 1 h. The cells were then incubated for 15 min at 37 °C under 5% CO2 to allow for peptide internalization. The cells were washed twice by centrifugation at 265× g for 5 min and analyzed by flow cytometry.
Figure 3 Competitive uptake of P3, P4, P5, P6, P9, and P11 peptides by FACS. Fluorescence was measured for H1299 cells (30,000 cells) after incubation with (2.5 µM) P3–P6, P9, and P11 by FITC-labeled peptides in the absence or presence of 80 nM of the EGF protein. The experiments were performed in duplicate. For each sample, the mean ± SD is shown (** p < 0.01, *** p < 0.001).
On the technique in general: A flow cytometer gives signals particle by particle.

The mark [5] stands for this setting: 6 h exposure then 24 h drug-free medium (6h24h), 0.5–50 µM.
Where [6] appears, read: H1299, first protocol (6 h preincubation, then up to 48 h), XTT.

“Also recorded” adds a separate entry of the source. Read-outs that look alike come from different tables or passages of the source. Marks after values point to notes of the source that are not given here. Positions of bridges follow the written chain, without caps; N, C: chain ends. Residues, ends and D or L forms follow the SMILES beside them. No end group written: not given here. *: point of attachment. Camptothecin(20S-OCO) = CC[C@@]1(OC(=O)*)C(=O)OCc2c1cc1n(c2=O)Cc2cc3ccccc3nc2-1; GABA = NCCCC(=O)O

For `CC[C@@]1(O)C(=O)OCc2c1cc1n(c2=O)Cc2cc3ccccc3nc2-1` [CPT, camptothecin], the “cell viability relative to control untreated cells (IC50 could not be calculated)” value in series [1] (setting [5]) is over 50% *; in series [1] (continuous exposure 48 h), under 50% **; in series [1] (continuous exposure 72 h), under 40% **; in series [2] (setting [5]) it was over 50% *; in series [2] (continuous exposure 48 h) it was under 45%; in series [2] (continuous exposure 72 h), under 15%. Also, the half-inhibitory concentration (IC50) in series [1] (6 h exposure then 48 h in drug-free medium (6h48h), 0.5–50 µM) came out at 8.5 ± 1 µM; in series [1] (continuous exposure 24 h), 25 ± 1.3 µM; in series [2] (NCI-H1299), 6.7 ± 1.8 µM; in series [2] (NCI-H1299, 24 h), 54.8 ± 2 µM.

For the molecule `CC[C@H](C)[C@@H]1NC(=O)[C@H](Cc2ccc(O)cc2)NC(=O)[C@H](CO)NC(=O)CNC(=O)[C@@H]2CCCN2C(=O)[C@H](C(C)C)NC(=O)[C@H](Cc2cnc[nH]2)NC(=O)[C@@H](NC(=O)CCCNC(=O)O[C@]2(CC)C(=O)OCc3c2cc2n(c3=O)Cc3cc4ccccc4nc3-2)CSSC[C@@H](C(N)=O)NC1=O` [P6-CPT] ({Camptothecin(20S-OCO)-GABA}-CHVPGSYIC-NH2; disulfide 1-9), the “cytotoxic effect (in words)” value in series [2] (setting [6]) is listed as “exhibited cytotoxic effects after 48 h”. For the same molecule, the “half-life of conjugate degradation (CPT release)” value in series [3] was 6 to 7 h.

As for `CC[C@H](C)[C@@H]1NC(=O)[C@H](Cc2ccc(O)cc2)NC(=O)[C@H](CO)NC(=O)CNC(=O)[C@@H]2CCCN2C(=O)[C@H](C(C)C)NC(=O)[C@H](Cc2c[nH]cn2)NC(=O)[C@@H](N)CSSC[C@@H](C(=O)O)NC1=O` [P6] (H-CHVPGSYIC-OH; disulfide 1-9), in series [4], the “competition of EGF with peptide uptake” value is on record as “better competition with EGF compared to P11”. Besides, the “cytotoxic effect (in words)” value in series [2] was “not toxic”.

For the molecule `CC[C@@]1(OC(=O)NCCCC(=O)N[C@H]2CSSC[C@@H](C(N)=O)NC(=O)[C@H](Cc3ccc(O)cc3)NC(=O)[C@H](CO)NC(=O)[C@H](CCC(N)=O)NC(=O)[C@H](CCSC)NC(=O)[C@H](C)NC(=O)[C@H](CC(N)=O)NC(=O)[C@H](C(C)C)NC2=O)C(=O)OCc2c1cc1n(c2=O)Cc2cc3ccccc3nc2-1` [P9-CPT] ({Camptothecin(20S-OCO)-GABA}-CVNAMQSYC-NH2; disulfide 1-9; C-terminus assumed), the “IC50 compared to free CPT” value in series [1] (6 h exposure then 48 h) is “four-fold higher”. The “effect on cell viability (in words)” value in series [1] is reported as “did not affect cell viability”. In addition, the “cytotoxic effect (in words)” value in series [2] (setting [6]) was “exhibited cytotoxic effects after 48 h”. The “half-life of conjugate degradation (CPT release)” value in series [3] lay in the range of 6 to 7 h.

Turning to `CSCC[C@@H]1NC(=O)[C@H](C)NC(=O)[C@H](CC(N)=O)NC(=O)[C@H](C(C)C)NC(=O)[C@@H](N)CSSC[C@@H](C(=O)O)NC(=O)[C@H](Cc2ccc(O)cc2)NC(=O)[C@H](CO)NC(=O)[C@H](CCC(N)=O)NC1=O` [P9] (H-CVNAMQSYC-OH; disulfide 1-9), in series [1], the “effect on cell viability (in words)” value is reported as “did not affect cell viability”. Moreover, in series [4], the “competition of EGF with peptide uptake” value is listed as “EGF significantly competed; also recorded: better competition with EGF compared to P11”. Moreover, the “cytotoxic effect (in words)” value in series [2] is on record as “not toxic”.

For CAQYTPGRC (disulfide 1-9) [P11], in series [4], the “competition of EGF with peptide uptake” value is “EGF significantly competed”.
